Experimental data from US20110171192A1, “SUBSTITUTED AMINE DERIVATIVE AND MEDICINAL COMPOSITION COMPRISING SAME AS THE ACTIVE INGREDIENT” (priority 2008, published 2011).

How the values were obtained:
[1] = Stability of nucleic acid transporter inhibitor in solution (acetate buffer pH 3, HPLC); format: physicochemical; settings: for residual ratio of the compound (%): acetate buffer pH 3, 10^−5 M, 25 °C, 20 hours after
Description: Stability of Nucleic Acid Transporter Inhibitor in Solution
0.02 mL of comparative compound or compound (1) methanol solution at the concentration of 10^−3 M was added to the 1.98 mL of acetate buffer, pH 3 (final concentration of 10^−5 M). The solutions were incubated at 25 °C, and the reaction solutions were collected at 2, 4 and 20 hours later. Each obtained 0.5 mL of reaction solutions were neutralized and adjusted to 1 mL, and 0.01 mL of 10^−3 M methanol solutions of 4-hydroxy were spiked as internal standard substrate. The solutions were measured by HPLC according to the measurement condition shown as follows, and the ratio (IS ratio) compared the amount of internal standard substrate with the amount of compounds was calculated. The remaining rate of test compounds were obtained to compare the IS ratio with IS ratio of pre-incubation according to the method described above.
HPLC Analytical Condition • column: Inertsil ODS-2 (φ4.6×150 mm) • Mobile phase: 20 mM phosphate buffer (pH 6)/CH3CN=7/3 (w/w) • Detection absorbance: 250 nm • Flow rate: 1 mL/min • Injection volume: 0.02 mL • Time span of measurement: 20 min

human CNT2 = molecular target: T1, human CNT2 (Homo sapiens, UniProt O43868); assay: Inhibitory activity against uptake of adenosine through human CNT2; format: cell-based; settings: human CNT2 transiently expressing cells, 14C-adenosine 10 μM, 30 minutes at 37° C., NBMPR 10 μM
T1 construct: expressed in transfected cells
T1 sequence (O43868 1-658): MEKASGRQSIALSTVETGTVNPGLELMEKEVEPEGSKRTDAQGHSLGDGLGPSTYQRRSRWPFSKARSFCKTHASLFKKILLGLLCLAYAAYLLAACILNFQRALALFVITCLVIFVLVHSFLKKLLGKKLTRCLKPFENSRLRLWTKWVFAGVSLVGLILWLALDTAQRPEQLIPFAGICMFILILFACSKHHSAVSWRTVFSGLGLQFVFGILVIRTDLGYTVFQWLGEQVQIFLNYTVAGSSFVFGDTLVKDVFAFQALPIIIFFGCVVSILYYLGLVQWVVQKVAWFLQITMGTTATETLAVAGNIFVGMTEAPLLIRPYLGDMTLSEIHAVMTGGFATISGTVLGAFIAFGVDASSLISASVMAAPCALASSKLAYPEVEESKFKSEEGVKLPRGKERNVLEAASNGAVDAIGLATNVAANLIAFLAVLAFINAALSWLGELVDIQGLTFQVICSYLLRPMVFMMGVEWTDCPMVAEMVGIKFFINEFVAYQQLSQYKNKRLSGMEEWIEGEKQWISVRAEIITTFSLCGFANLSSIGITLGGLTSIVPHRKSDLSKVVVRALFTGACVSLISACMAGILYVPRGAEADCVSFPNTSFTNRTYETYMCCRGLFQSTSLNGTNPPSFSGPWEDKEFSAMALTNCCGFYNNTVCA
Description: Measurement of Inhibitory Activity Against Uptake of Adenosine Through Human CNT2
An Uptake buffer was prepared by addition of a mixture of non-radioisotope labeled (Sigma) and ^14C-labeled (GE Healthcare) adenosine at the final concentration of 10 μM into a buffer, pH 7.4, containing 140 mM sodium chloride, 2 mM potassium chloride, 1 mM calcium chloride, 1 mM magnesium chloride, 10 mM HEPES
2-[4-(2-hydroxyethyl)-1-piperazinyl]thane sulfonic acid, 5 mM tris(hydroxymethyl)aminomethane and 5 mM glucose. For measurement of basal uptake, Basal uptake measurement buffer, which contained 140 mM choline chloride instead of sodium chloride was prepared. In uptake assays, NBMPR was added to Uptake buffer and Basal uptake measurement buffer at the final concentration of 10 μM. In the case of measurement of inhibitory activity of test compounds, test compounds were dissolved in dimethyl sulfoxide, and then appropriately diluted with Uptake buffer as to Measurement buffers. After removing culture medium of human CNT2 transiently expressing cells, Pretreatment buffer (Basal uptake measurement buffer without adenosine and glucose) was added to wells at 500 μL/well and incubated at 37° C. for 10 minutes. After repeating the same step again, Pretreatment buffer was removed and Measurement buffers and Basal uptake measurement buffer were added at 300 μL/well and incubated at 37° C. After incubation for 30 minutes, Measurement buffers and Basal uptake measurement buffer were removed, and the cells were washed with Washing buffer (Basal uptake measurement buffer with non-radioisotope labeled adenosine at 10 μM) at 500 μL/well twice. The cells were solubilized with 0.5 mol/L sodium hydroxide at 200 μL/well, and the cell lysates were transferred into glass vials at 100 μL. After mixing with 5 mL of ACS-II (GE Healthcare Bioscience), radioactivity was measured by means of scintillation counter (Aloka). One hundred % was set to the difference between the uptake in the control group and the basal uptake, and the uptake of adenosine at each test compound concentration was calculated. The test compound concentration inhibiting 50% uptake of adenosine (IC50 value) was calculated using regression line. […] The IC50 value was expressed as A; 1˜10 nM, B; 10˜100 nM or not less than 100 nM;

absorption of adenosine = assay: Inhibition of absorption of orally given [3H]-adenosine in rats (serum radioactivity); format: in vivo; settings: male SD rats, oral; for ED50: Rattus norvegicus, 50% inhibitory dose on absorption of adenosine, from regression line; for ED50 value (in words): inhibition on absorption of adenosine
Description: Four weeks old male SD rats (Charles river japan corporation) were purchased and the animals over 1 weeks quarantine were used. Body weight of the rats fasted 24 hours from last day were measured and grouped used grouping soft (Stat light #11, Yukums corporation). Test compound and [^3H]-adenosine solution (4 μCi/mL) were given orally at the volume of 2 mL/kg, and about 500 μL of blood were obtained from retro orbital vein. The blood was centrifuged at 3000 rpm for 10 min, and 13 μL of H2O2 solution were added to the 100 μL of resulted serum and placed for 10 min. And 5 mL of liquid scintilation cocktail added and mixed enough, and radio activity was measured using liquid scintillation counter. Inhibitory rate was calculated according to the formula described as follow, and the regression line was obtained from inhibitory rate and its log dose. The 50% inhibitory dose of the compound (ED50) at the inhibition on absorption of adenosine was calculated used regression line formula The results were shown in Table 2.
Inhibitory ratio={1−radio activity of the serum obtained from rats treated with test compound (dpm)/radio activity of the serum obtained from rats treated with vehicle (dpm)}×100

Row | residual ratio of the compound (%) [1] [%] | Stability in pH3 solution (in words) ([1]; pH3 solution, versus comparative compound) | Structure (SMILES) | IC50 (human CNT2) [µM] | ED50 (absorption of adenosine) [mg/kg] | ED50 value (in words) (absorption of adenosine)
1 | 45.0 |  | N#Cc1c(NCc2ccc(-c3ccccc3)cc2)n(C2O[C@H](CO)[C@@H](O)[C@H]2O)c2ncnc(N)c12 (stereo partly drawn) [Comparative compound, reference compound] |  |  | 
2 | 85.0 | better than that of comparative compound | C[C@@]1(O)[C@H](O)[C@@H](CO)O[C@H]1n1c(NCc2ccc(-c3ccccc3)cc2)c(C#N)c2c(N)ncnc21 [Compound (1), 4-Amino-6-[(biphenyl-4-ylmethyl)-amino]-7-(3,4-dihydroxy-5-hydroxymethyl-3-methyl-tetrahydro-furan-2-yl)-7H-pyrrolo[2,3-d]pyrimidine-5-carbonitrile] | ≥ 0.1 | 1.3 | high ED50 value
3 |  |  | CCOC(=O)CCCCOc1cc(CNc2c(C#N)c3c(N)ncnc3n2C2O[C@H](CO)[C@@H](O)[C@@]2(C)O)ccc1-c1ccccc1 (stereo partly drawn) [Compound (2), 5-(4-{[4-Amino-5-cyano-7-(3,4-dihydroxy-5-hydroxymethyl-3-methyl-tetrahydrofuran-2-yl)-7H-pyrrolo[2,3-d]pyrimidin-6-ylamino]-methyl}-biphenyl-2-yloxy)-pentanoic acid ethyl ester] | 0.01 to 0.1 | 1.4 | high ED50 value
4 |  |  | C[C@]1(O)C(n2c(NCc3ccc(-c4ccccc4)c(OCCCCCl)c3)c(C#N)c3c(N)ncnc32)O[C@H](CO)[C@H]1O (stereo partly drawn) [Compound (3), 4-Amino-6-{[2-(4-chloro-butoxy)-biphenyl-4-ylmethyl]-amino}-7-(3,4-dihydroxy-5-hydroxymethyl-3-methyl-tetrahydro-furan-2-yl)-7H-pyrrolo[2,3-d]pyrimidine-5-carbonitrile] | 0.01 to 0.1 | 1.1 | high ED50 value
5 |  |  | C[C@]1(O)C(n2c(NCc3ccc(-c4ccccc4)c(OCCCCN4CCOCC4)c3)c(C#N)c3c(N)ncnc32)O[C@H](CO)[C@H]1O (stereo partly drawn) [Compound (4), 4-Amino-7-(3,4-dihydroxy-5-hydroxymethyl-3-methyl-tetrahydro-furan-2-yl)-6-{[2-(4-morpholin-4-yl-butoxy)-biphenyl-4-ylmethyl]-amino}-7H-pyrrolo[2,3-d]pyrimidine-5-carbonitrile] | 0.01 to 0.1 | 0.51 | high ED50 value
6 |  |  | CC(C)(C)[Si](C)(C)OCCCCOc1cc(CNc2c(C#N)c3c(N)ncnc3n2C2O[C@H](CO)[C@@H](O)[C@@]2(C)O)ccc1-c1ccccc1 (stereo partly drawn) [Compound (5), 4-Amino-6-({2-[4-(tert-butyl-dimethyl-silanyloxy)-butoxy]-biphenyl-4-ylmeth-yl}-amino)-7-(3,4-dihydroxy-5-hydroxymethyl-3-methyl-tetrahydro-furan-2-yl)-7H-pyrrolo[2,3-d]pyrimidine-5-carbonitrile] | ≥ 0.1 |  | 
7 |  |  | C[C@]1(O)C(n2c(NCc3ccc(-c4ccccc4)c(OCCCCN4CCCCC4)c3)c(C#N)c3c(N)ncnc32)O[C@H](CO)[C@H]1O (stereo partly drawn) [Compound (6), 4-Amino-7-(3,4-dihydroxy-5-hydroxymethyl-3-methyl-tetrahydro-furan-2-yl)-6-{[2-(4-piperidin-1-yl-butoxy)-biphenyl-4-ylmethyl]-amino}-7H-pyrrolo[2,3-d]pyrimidine-5-carbonitrile] | 0.01 to 0.1 |  | 
8 |  |  | CN(C)C(=O)CCCCOc1cc(CNc2c(C#N)c3c(N)ncnc3n2C2O[C@H](CO)[C@@H](O)[C@@]2(C)O)ccc1-c1ccccc1 (stereo partly drawn) [Compound (7), 5-(4-{[4-Amino-5-cyano-7-(3,4-dihydroxy-5-hydroxymethyl-3-methyltetrahydrofuran-2-yl)-7H-pyrrolo[2,3-d]pyrimidin-6-ylamino]-methyl}-biphenyl-2-yloxy)-pentanoic acid dimethylamide] | 0.001 to 0.01 | 3 | high ED50 value
9 |  |  | C[C@]1(O)C(n2c(NCc3ccc(-c4ccccc4)c(OCCCCO)c3)c(C#N)c3c(N)ncnc32)O[C@H](CO)[C@H]1O (stereo partly drawn) [Compound (8), 4-Amino-7-(3,4-dihydroxy-5-hydroxymethyl-3-methyl-tetrahydro-furan-2-yl)-6-{[2-(4-hydroxy-butoxy)-biphenyl-4-ylmethyl]-amino}-7H-pyrrolo[2,3-d]pyrimidine-5-carbonitrile] | 0.001 to 0.01 | 0.78 | high ED50 value
10 |  |  | CCOC(=O)CCCCOc1cc(CNc2c(C#N)c3c(O)ncnc3n2C2O[C@H](CO)[C@@H](O)[C@@]2(C)O)ccc1-c1ccccc1 (stereo partly drawn) [Compound (9), 5-(4-{[5-Cyano-7-(3,4-dihydroxy-5-hydroxymethyl-3-methyltetrahydro-furan-2-yl)-4-hydroxy-7H-pyrrolo[2,3-d]pyrimidin-6-ylamino]methyl}-biphenyl-2-yloxy)-pentanoic acid ethyl ester] | ≥ 0.1 |  | 
